Several values for one entry are separate records, joined by “and”; a condition that tells them apart may be missing. Equal values may be shown once. Where a name gives a salt, the structure may show the parent alone.
Assays:
[1] = Gravimetric vapor sorption analysis (GVS), water absorption 0-80% relative humidity; format: physicochemical; settings: for Water absorption 0-80% RH (% w/w): gravimetric vapor sorption
[2] = Weight loss on heating from room temperature to 120° C.; format: physicochemical; settings: heating from room temperature (RT) to 120° C.
Experimental: From the crystal structure (performed using single crystal X-ray diffraction, SXRD) of the free base compound of Formula (Ia), it was determined that the form was a non-stoichiometric hydrate.
Accordingly, a salt screen was performed and out of 20 counter ions tested, three salts (phosphoric, sulfuric and xinafoic salt) were scaled up (5 g) and further analysis was performed. […] (sulfuric salt) and 5.4% w/w RT−120° C. (phosphoric salt).
Screening was performed at Almac including over 110 solvent and non-solvent based screening experiments.

[3] = listed as free base compound of Formula (Ia)

## COC[C@H](C(=O)Nc1cccc2c(-c3nc(Nc4cccc(S(C)(=O)=O)c4F)ncc3F)c[nH]c12)N1CCN(C)CC1 [Free base compound of Formula (Ia), (R)—N-(3-(5-fluoro-2-(2-fluoro-3-(methylsulfonyl)phenylamino)pyrimidin-4-yl)-1H-indol-7-yl)-3-methoxy-2-(4-methylpiperazin-1-yl)propanamide]
[1]
  Hygroscopicity (in words): slightly hygroscopic
  Water absorption 0-80% RH (% w/w): ~1.7 % w/w
[1]; [3]
  Water absorption 0-80% RH (% w/w): 2 % w/w and 1.7 % w/w
[2]
  Weight loss RT-120° C. (% w/w): ~5 % w/w
[2]; [3]
  Weight loss RT-120° C. (% w/w): 5 % w/w

## COC[C@H](C(=O)Nc1cccc2c(-c3nc(Nc4cccc(S(C)(=O)=O)c4F)ncc3F)c[nH]c12)N1CCN(C)CC1 [Xinafoate salt of compound of Formula (Ia)] [4-{(2R)-1-[(3-{5-fluoro-2-[2-fluoro-3-(methanesulfonyl)anilino]pyrimidin-4-yl}-1H-indol-7-yl)amino]-3-methoxy-1-oxopropan-2-yl}-1-methylpiperazin-1-ium; 1-hydroxynaphthalene-2-carboxylate]
[1]
  Hygroscopicity (in words): non-hygroscopic
  Water absorption 0-80% RH (% w/w): ~0.2 % w/w
[1]; listed as xinafoate salt
  Water absorption 0-80% RH (% w/w): 0.2 % w/w
[2]
  Weight loss RT-120° C. (% w/w): ~0.2 % w/w
[2]; listed as xinafoate salt
  Weight loss RT-120° C. (% w/w): 0.2 % w/w

Source: patent US11149029B2, “Salts of IJAK inhibitors and methods of using the same” (AstraZeneca AB, priority 2018, dated 2021)
